Experimental data taken from patent US10786508B2, “Substituted imidazo[1,5-A]-pyrimidines and their use in the treatment of medical disorders” (Lysosomal Therapeutics Inc., priority 2014, dated 2020).
Values after ≈ are worked out from the molar mass of the structure shown.

Experiments:
[1] = molecular target: T1, glucocerebrosidase (Gcase) (Homo sapiens, UniProt P04062); assay: Glucocerebrosidase (Gcase) activation assay, 4-methylumbelliferyl-beta-D-glucopyranoside substrate, with saposin C; assay type: biochemical; conditions: 10 nM GCase, 100 nM saposin C, pH 4.7; for activation at 0.1 µM: read-out: Percent Gease Activation 0.1 μM Test Compound; for activation at 1 µM: read-out: Percent Gease Activation 1 μM Test Compound
T1 construct: micellar solution containing 10 nM GCase and 100 nM saposin C
T1 sequence (P04062 40-536): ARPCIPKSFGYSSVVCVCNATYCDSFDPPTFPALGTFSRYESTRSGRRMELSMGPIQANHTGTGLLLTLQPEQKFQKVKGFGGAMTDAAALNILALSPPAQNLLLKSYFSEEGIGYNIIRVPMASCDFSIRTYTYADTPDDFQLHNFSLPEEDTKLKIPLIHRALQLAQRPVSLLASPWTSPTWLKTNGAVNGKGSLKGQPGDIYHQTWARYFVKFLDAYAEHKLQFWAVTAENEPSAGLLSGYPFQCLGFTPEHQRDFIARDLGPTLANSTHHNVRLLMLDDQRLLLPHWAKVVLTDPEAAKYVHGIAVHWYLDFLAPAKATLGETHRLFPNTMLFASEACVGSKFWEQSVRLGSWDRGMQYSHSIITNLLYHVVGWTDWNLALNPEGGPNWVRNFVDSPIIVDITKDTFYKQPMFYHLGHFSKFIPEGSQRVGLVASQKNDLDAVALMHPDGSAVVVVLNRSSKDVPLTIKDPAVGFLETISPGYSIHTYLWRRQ
Procedure: The ability of exemplary compounds to activate glucocerebrosidase (Gcase) was measured.
A 484 μL aliquot of a 1.0 mg/mL solution of phosphatidylserine (PS) (Sigma P7769) in chloroform was evaporated under a stream of nitrogen for 1 hour. The lipid film was dissolved over 4 minutes of vigorous vortexing in 40 mL of 176 mM K2HPO4/50 mM citric acid (pH 4.7) containing 7.5 μL of triton X-100, resulting in a mixed micellar preparation with a composition of 0.32 mM triton and 0.37 mol % PS. 4-Methylumbelliferyl-beta-D-glucopyranoside (ACROS-337025000) was dissolved in the micellar solution to a final concentration of 2 mM for use as the reaction substrate.
Test compounds were diluted to the desired concentrations with dimethylsulfoxide (DMSO) from 10 mM stocks, and 0.41 μL of the DMSO compound mixture was added to 100 μL of micellar solution containing 10 nM GCase and 100 nM saposin C (Enzo ALX-201-262-C050). Pre-incubation was allowed to occur for 30 minutes at room temperature, after which the reaction was initiated by combining 25 μL of substrate solution with 25 μL of compound/GCase/saposin mixture. The reaction proceeded for 15 minutes at room temperature and was stopped by adding 150 μL of 1M glycine, pH 12.5. The endpoint of the reaction was monitored by measuring fluorescence intensity (excitation: 365 nm; emission: 440 nm) on a SpectraMax i3 instrument (Molecular Devices). Test compounds were screened at 1.0 and 0.1 μM final concentration, and subsequent 8-point dose response curves were obtained using 3-fold dilutions from a maximum final concentration of 5 μM.
For experiments in which the test compound was used at a concentration of 1.0 μM, the symbol “+” indicates less than 30% Gcase activation; the symbol “++” indicates Gcase activation in the range of 30% up to 60%; and the symbol “+++” indicates Gcase activation greater than 60%. For experiments in which the test compound was used at a concentration of 0.1 μM, the symbol “*” indicates less than 10% Gcase activation; the symbol “**” indicates Gcase activation in the range of 10% up to 20%; and the symbol “***” indicates greater than 20% Gcase activation.

[2] = Compound solubility in water; assay type: physicochemical

| SMILES | activation at 0.1 µM ([1]; 0.1 μM test compound) [%] | activation at 1 µM ([1]; 1 μM test compound) [%] | solubility [2] [µg/mL] | Compound Solubility in Water [2] [µg/mL] | Percent Gease Activation 0.1 μM Test Compound ([1]; 0.1 μM test compound) | Percent Gease Activation 1 μM Test Compound ([1]; 1 μM test compound) |
| --- | --- | --- | --- | --- | --- | --- |
| COCC#Cc1ccc(NC(=O)c2ncn3c(C)cc(C)nc23)cc1 [III-2] | < 10 | 30 to 60 | 5.8 (≈ 17.3 µM) | – | – | – |
| Cc1cc(C)n2cnc(C(=O)Nc3ccc(-c4cocn4)cc3)c2n1 [III-3] | < 10 | 30 to 60 | 4.8 (≈ 14.4 µM) | – | – | – |
| Cc1cc(C)n2cnc(C(=O)Nc3ccc(-c4ncco4)cc3)c2n1 [III-4] | < 10 | 30 to 60 | 7.9 (≈ 23.7 µM) | – | – | – |
| Cc1cc(C)n2cnc(C(=O)Nc3ncc(C)[nH]3)c2n1 [III-6] | < 10 | < 30 | > 54 | – | – | – |
| Cc1cc(C)n2cnc(C(=O)Nc3ccc4c(C)cc(=O)oc4c3)c2n1 [III-9] | < 10 | < 30 | 0.3 (≈ 0.861 µM) | – | – | – |
| Cc1cc(C)n2cnc(C(=O)Nc3ccc4nc(O)cc(C)c4c3)c2n1 [III-13] | < 10 | < 30 | 0.3 (≈ 0.864 µM) | – | – | – |
| COc1cc(NC(=O)c2ncn3c(C)cc(C)nc23)ccc1-c1cnco1 [III-14] | < 10 | < 30 | 0.5 (≈ 1.38 µM) | – | – | – |
| Cc1cc(C)n2cnc(C(=O)Nc3ccc4c(=O)cc(C)oc4c3)c2n1 [III-17] | < 10 | < 30 | 0.4 (≈ 1.15 µM) | – | – | – |
| Cc1cc(C)n2cnc(C(=O)Nc3ccc4oc(-c5ccncc5)nc4c3)c2n1 [III-19] | < 10 | 30 to 60 | 0.3 (≈ 0.78 µM) | – | – | – |
| Cc1cc(C)n2cnc(C(=O)Nc3ccc4[nH]c(-c5ccco5)nc4c3)c2n1 [III-20] | < 10 | < 30 | 0.3 (≈ 0.806 µM) | – | – | – |
| Cc1cc(C)n2cnc(C(=O)Nc3ccc(Cl)c(COc4cccnc4)c3)c2n1 [III-23] | 10 to 20 | > 60 | 0.3 (≈ 0.736 µM) | – | – | – |
| Cc1cc(C)n2cnc(C(=O)Nc3ccc4nccc(O)c4c3)c2n1 [III-24] | < 10 | < 30 | 6 (≈ 18 µM) | – | – | – |
| Cc1cc(C)n2cnc(C(=O)Nc3ccc(C)c(-c4ncco4)c3)c2n1 [III-26] | 10 to 20 | > 60 | 0.5 (≈ 1.44 µM) | – | – | – |
| Cc1cc(C)n2cnc(C(=O)Nc3ccc(Cl)c(-c4cnco4)c3)c2n1 [III-27] | < 10 | 30 to 60 | 0.2 (≈ 0.544 µM) | – | – | – |
| CCCCCOc1ccc(NC(=O)c2ncn3c(C)cc(C)nc23)cc1 [III-28] | > 20 | > 60 | 0.3 (≈ 0.851 µM) | – | – | – |
| Cc1cc(C)n2cnc(C(=O)Nc3ccc(-c4cccs4)nc3)c2n1 [III-29] | 10 to 20 | > 60 | 0.4 (≈ 1.14 µM) | – | – | – |

| SMILES | activation at 0.1 µM ([1]; 0.1 μM test compound) [%] | activation at 1 µM ([1]; 1 μM test compound) [%] | solubility [2] [µg/mL] | Compound Solubility in Water [2] [µg/mL] | Percent Gease Activation 0.1 μM Test Compound ([1]; 0.1 μM test compound) | Percent Gease Activation 1 μM Test Compound ([1]; 1 μM test compound) |
| --- | --- | --- | --- | --- | --- | --- |
| Cc1cc(C)n2cnc(C(=O)Nc3ccc(-c4ccco4)cc3)c2n1 [III-30] | > 20 | > 60 | 0.3 (≈ 0.903 µM) | – | – | – |
| Cc1cc(C)n2cnc(C(=O)Nc3ccc(-c4ccco4)nc3)c2n1 [III-31] | – | – | – | <0.01 | * (less than 10% Gcase activation) | + (less than 30% Gcase activation) |
| O=C(NC1CCCc2ccccc21)c1ncn2c(C(F)F)cc(C(F)F)nc12 (centres unmarked) [III-32] | < 10 | < 30 | 17.2 (≈ 43.8 µM) | – | – | – |
| COCc1cc(C2CC2)nc2c(C(=O)NC3(C)CCOc4c(F)ccc(F)c43)ncn12 (centres unmarked) [III-33] | 10 to 20 | > 60 | – | – | – | – |
| Cc1cc(C(F)(F)F)nc2c(C(=O)NC3(C)CCCc4ccccc43)ncn12 (centres unmarked) [III-34] | < 10 | < 30 | 24.9 (≈ 64.1 µM) | – | – | – |
| Cc1cc(C(C)C)n2cnc(C(=O)N[C@H]3CCCc4ccccc43)c2n1 [III-35] | < 10 | < 30 | 21.6 (≈ 62 µM) | – | – | – |
| Cc1cc(C)n2cnc(C(=O)NC3(C)CCCc4ccccc43)c2n1 (centres unmarked) [III-36] | < 10 | > 60 | 11.9 (≈ 35.6 µM) | – | – | – |
| Cc1cc(C(C)C)n2cnc(C(=O)NC3(C)CCOc4c(F)cccc43)c2n1 (centres unmarked) [III-37] | < 10 | 30 to 60 | 28 (≈ 73.2 µM) | – | – | – |
| [2H]C1(NC(=O)c2ncn3c(C)cc(C)nc23)CCCCc2ccccc21 (centres unmarked) [III-38] | 10 to 20 | > 60 | 14.9 (≈ 44.4 µM) | – | – | – |
| C#Cc1ccc(C(C)(C)NC(=O)c2ncn3c(C)cc(C(F)(F)F)nc23)cc1 [III-39] | < 10 | < 30 | – | – | – | – |
| C#Cc1cccc(C(C)(C)NC(=O)c2ncn3c(C)cc(C(F)(F)F)nc23)c1 [III-40] | < 10 | < 30 | 40.5 (≈ 105 µM) | – | – | – |
| C#Cc1cccc(C(C)(C)NC(=O)c2ncn3c(C)cc(C)nc23)c1 [III-41] | 10 to 20 | > 60 | 7.6 (≈ 22.9 µM) | – | – | – |
| C#Cc1ccc(C(C)(C)NC(=O)c2ncn3c(C)cc(C)nc23)cc1 [III-42] | < 10 | 30 to 60 | 18.7 (≈ 56.3 µM) | – | – | – |
| CCC(C)(NC(=O)c1ncn2c(C)cc(C)nc12)c1ccc(F)cc1 (centres unmarked) [III-43] | 10 to 20 | > 60 | 14.7 (≈ 43.2 µM) | – | – | – |
| C#Cc1ccc(NC(=O)c2ncn3c(C)cc(C)nc23)c(F)c1 [III-48] | 10 to 20 | > 60 | – | – | – | – |

The remaining lines, values ahead:

| activation at 0.1 µM ([1]; 0.1 μM test compound) [%] | activation at 1 µM ([1]; 1 μM test compound) [%] | solubility [2] [µg/mL] | Compound Solubility in Water [2] [µg/mL] | Percent Gease Activation 0.1 μM Test Compound ([1]; 0.1 μM test compound) | Percent Gease Activation 1 μM Test Compound ([1]; 1 μM test compound) | SMILES |
| --- | --- | --- | --- | --- | --- | --- |
| 10 to 20 | > 60 | < 1.5 | – | – | – | C#Cc1ccc(NC(=O)c2ncn3c(C)cc(C)nc23)cc1 [III-1] |
| < 10 | < 30 | 26.6 (≈ 91.3 µM) | – | – | – | C#Cc1ccc(NC(=O)c2ncn3c(C)cc(C)nc23)cn1 [III-5] |
| < 10 | < 30 | 0.7 (≈ 2.19 µM) | – | – | – | Cc1cc(C)n2cnc(C(=O)Nc3ccc4[nH]c(C)cc4c3)c2n1 [III-7] |
| < 10 | < 30 | 0.4 (≈ 1.31 µM) | – | – | – | Cc1cc(C)n2cnc(C(=O)Nc3ccc4[nH]ncc4c3)c2n1 [III-8] |
| < 10 | < 30 | 6.4 (≈ 19.9 µM) | – | – | – | Cc1cc(C)n2cnc(C(=O)Nc3ccc4c(c3)CC(=O)N4)c2n1 [III-10] |
| < 10 | < 30 | 0.5 (≈ 1.63 µM) | – | – | – | Cc1cc(C)n2cnc(C(=O)Nc3ccc4cn[nH]c4c3)c2n1 [III-11] |
| < 10 | < 30 | 3.4 (≈ 11 µM) | – | – | – | Cc1cc(C)n2cnc(C(=O)Nc3ccc4c(c3)OCO4)c2n1 [III-12] |
| < 10 | < 30 | 3 (≈ 9.34 µM) | – | – | – | Cc1cc(C)n2cnc(C(=O)Nc3ccc4nc(C)oc4c3)c2n1 [III-15] |
| < 10 | < 30 | 29.9 (≈ 93 µM) | – | – | – | Cc1cc(C)n2cnc(C(=O)Nc3ccc4c(c3)CCNC4)c2n1 [III-16] |
| < 10 | < 30 | 2.3 (≈ 7.48 µM) | – | – | – | Cc1cc(C)n2cnc(C(=O)Nc3ccc4oncc4c3)c2n1 [III-18] |
| < 10 | < 30 | 1.1 (≈ 3.26 µM) | – | – | – | Cc1cc(C)n2cnc(C(=O)Nc3ccc4nc(C)sc4c3)c2n1 [III-21] |
| 10 to 20 | > 60 | 4.7 (≈ 15.3 µM) | – | – | – | Cc1cc(C)n2cnc(C(=O)Nc3ccc4c(c3)CCC4)c2n1 [III-22] |
| < 10 | < 30 | – | 3.8 | – | – | Cc1cc(C)n2cnc(C(=O)Nc3ccc4nccc(O)c4c3)c2n1 [III-25] |
| 10 to 20 | > 60 | – | – | – | – | C#Cc1ccc(NC(=O)c2ncn3c(C)cc(C)nc23)cc1F [III-49] |
